# According to paper PMC8383264, “Structural Characterization of the Reaction and Substrate Specificity Mechanisms of Pathogenic Fungal Acetyl-CoA Synthetases” (ACS Chemical Biology, 2021):
# T1: A. fumigatus Acs1 (Aspergillus fumigatus, UniProt Q4WQ02)
# T1 sequence (Q4WQ02 2-670): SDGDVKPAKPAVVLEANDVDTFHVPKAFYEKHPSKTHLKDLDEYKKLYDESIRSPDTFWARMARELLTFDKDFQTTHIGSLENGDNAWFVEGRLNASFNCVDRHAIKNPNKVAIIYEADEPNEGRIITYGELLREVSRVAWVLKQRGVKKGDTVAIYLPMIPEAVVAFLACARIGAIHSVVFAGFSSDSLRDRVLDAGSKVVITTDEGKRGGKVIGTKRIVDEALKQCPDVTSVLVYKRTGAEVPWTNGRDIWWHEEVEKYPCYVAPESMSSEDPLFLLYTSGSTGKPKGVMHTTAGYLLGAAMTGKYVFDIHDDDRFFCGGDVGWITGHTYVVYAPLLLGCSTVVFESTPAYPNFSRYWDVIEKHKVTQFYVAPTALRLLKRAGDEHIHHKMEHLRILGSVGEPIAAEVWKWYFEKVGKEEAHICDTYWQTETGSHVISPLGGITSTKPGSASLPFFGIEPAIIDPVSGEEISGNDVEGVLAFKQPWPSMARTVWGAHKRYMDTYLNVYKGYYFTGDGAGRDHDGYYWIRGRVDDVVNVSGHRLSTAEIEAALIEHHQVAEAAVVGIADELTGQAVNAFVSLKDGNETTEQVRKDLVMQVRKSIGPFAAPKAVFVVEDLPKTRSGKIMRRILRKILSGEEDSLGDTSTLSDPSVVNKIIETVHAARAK
# Key:
# CnAcs1 [1] = biological target: T2, CnAcs1 (Cryptococcus neoformans, UniProt J9VFT1); test: biochemical; format: binding; conditions: read-out: thermal shift (ΔTm)
# CnAcs1 [2] = biological target: T2, CnAcs1; test: Coupled continuous pyrophosphate detection assay (EnzChek) of ACS activity; conditions: for utilization as substrate for CnAcs1: alternative acid substrates
# A. fumigatus Acs1 = biological target: T1, A. fumigatus Acs1; test: as above
# C. albicans Acs1 = C. albicans Acs1 (Candida albicans, UniProt Q8NJN3); test: as above
# C. immitis Acs1 = C. immitis Acs1 (Coccidioides immitis, UniProt J3KJC6); test: biochemical
# C. posadasii Acs1 = C. posadasii Acs1 (Coccidioides posadasii, UniProt C5PGB4); test: biochemical
# [3] = test system: CC(C)(COP(=O)(O)OP(=O)(O)OC[C@H]1O[C@@H](n2cnc3c(N)ncnc32)[C@H](O)[C@@H]1OP(=O)(O)O)[C@@H](O)C(=O)NCCC(=O)NCCS; test: purified protein, by the assay type
# [4] = test system: Nc1ncnc2c1ncn2[C@@H]1O[C@H](COP(=O)(O)OP(=O)(O)OP(=O)(O)O)[C@@H](O)[C@H]1O; test: purified protein, by the assay type; conditions: 37.0 °C
# [5] = substrate: CC(C)(COP(=O)(O)OP(=O)(O)OC[C@H]1O[C@@H](n2cnc3c(N)ncnc32)[C@H](O)[C@@H]1OP(=O)(O)O)[C@@H](O)C(=O)NCCC(=O)NCCS; test: purified protein, by the assay type; conditions: 37 °C, ±S.E.M.
# [6] = substrate: Nc1ncnc2c1ncn2[C@@H]1O[C@H](COP(=O)(O)OP(=O)(O)OP(=O)(O)O)[C@@H](O)[C@H]1O; test: purified protein, by the assay type; conditions: 37 °C, ±S.E.M.
# [7] = other: substrate Km, other substrates in excess (ATP 2.5 mM, CoA 1 mM, sodium acetate 0.5 mM)
# [8] = other: substrate Km, other substrates in excess
# [9] = other: commercially available enzyme, control, other substrates in excess
# C. albicans Acs1, sequence (Q8NJN3 2-671 limits assumed): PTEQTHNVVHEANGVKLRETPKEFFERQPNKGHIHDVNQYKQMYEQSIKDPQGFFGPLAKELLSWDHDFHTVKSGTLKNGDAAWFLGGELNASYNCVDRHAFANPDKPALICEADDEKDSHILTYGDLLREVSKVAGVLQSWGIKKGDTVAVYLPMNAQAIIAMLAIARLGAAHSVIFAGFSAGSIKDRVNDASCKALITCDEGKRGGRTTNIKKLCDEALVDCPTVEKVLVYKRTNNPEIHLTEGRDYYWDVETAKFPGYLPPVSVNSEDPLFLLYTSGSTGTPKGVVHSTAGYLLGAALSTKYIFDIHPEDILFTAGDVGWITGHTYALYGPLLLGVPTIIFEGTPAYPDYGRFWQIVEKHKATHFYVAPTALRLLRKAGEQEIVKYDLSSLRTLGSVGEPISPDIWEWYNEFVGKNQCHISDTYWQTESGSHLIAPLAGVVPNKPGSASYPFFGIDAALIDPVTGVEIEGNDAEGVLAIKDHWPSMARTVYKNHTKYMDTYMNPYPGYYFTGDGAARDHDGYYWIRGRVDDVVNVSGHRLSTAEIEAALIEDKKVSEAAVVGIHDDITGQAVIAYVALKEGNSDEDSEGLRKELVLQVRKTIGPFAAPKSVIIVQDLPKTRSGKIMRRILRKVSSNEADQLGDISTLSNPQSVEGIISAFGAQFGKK
# C. posadasii Acs1, sequence (C5PGB4 2-691 limits assumed): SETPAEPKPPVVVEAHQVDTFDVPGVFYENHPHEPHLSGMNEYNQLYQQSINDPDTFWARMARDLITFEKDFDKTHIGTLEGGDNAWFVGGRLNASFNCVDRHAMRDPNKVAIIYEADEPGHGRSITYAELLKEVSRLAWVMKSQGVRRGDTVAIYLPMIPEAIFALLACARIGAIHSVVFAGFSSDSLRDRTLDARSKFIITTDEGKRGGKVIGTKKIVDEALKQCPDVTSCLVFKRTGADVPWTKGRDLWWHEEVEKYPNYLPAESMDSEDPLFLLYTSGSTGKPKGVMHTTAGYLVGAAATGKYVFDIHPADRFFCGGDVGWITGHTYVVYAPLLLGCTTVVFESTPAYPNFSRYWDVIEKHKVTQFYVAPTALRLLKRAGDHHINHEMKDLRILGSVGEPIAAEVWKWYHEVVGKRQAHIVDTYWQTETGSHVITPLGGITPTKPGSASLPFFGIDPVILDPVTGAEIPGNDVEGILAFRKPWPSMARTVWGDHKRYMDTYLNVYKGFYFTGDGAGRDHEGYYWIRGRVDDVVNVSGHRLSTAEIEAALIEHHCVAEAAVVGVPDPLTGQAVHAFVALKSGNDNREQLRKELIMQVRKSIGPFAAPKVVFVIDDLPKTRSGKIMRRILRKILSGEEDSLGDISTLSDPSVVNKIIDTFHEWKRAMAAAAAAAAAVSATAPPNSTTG
# C. immitis Acs1, sequence (J3KJC6 2-691 limits assumed): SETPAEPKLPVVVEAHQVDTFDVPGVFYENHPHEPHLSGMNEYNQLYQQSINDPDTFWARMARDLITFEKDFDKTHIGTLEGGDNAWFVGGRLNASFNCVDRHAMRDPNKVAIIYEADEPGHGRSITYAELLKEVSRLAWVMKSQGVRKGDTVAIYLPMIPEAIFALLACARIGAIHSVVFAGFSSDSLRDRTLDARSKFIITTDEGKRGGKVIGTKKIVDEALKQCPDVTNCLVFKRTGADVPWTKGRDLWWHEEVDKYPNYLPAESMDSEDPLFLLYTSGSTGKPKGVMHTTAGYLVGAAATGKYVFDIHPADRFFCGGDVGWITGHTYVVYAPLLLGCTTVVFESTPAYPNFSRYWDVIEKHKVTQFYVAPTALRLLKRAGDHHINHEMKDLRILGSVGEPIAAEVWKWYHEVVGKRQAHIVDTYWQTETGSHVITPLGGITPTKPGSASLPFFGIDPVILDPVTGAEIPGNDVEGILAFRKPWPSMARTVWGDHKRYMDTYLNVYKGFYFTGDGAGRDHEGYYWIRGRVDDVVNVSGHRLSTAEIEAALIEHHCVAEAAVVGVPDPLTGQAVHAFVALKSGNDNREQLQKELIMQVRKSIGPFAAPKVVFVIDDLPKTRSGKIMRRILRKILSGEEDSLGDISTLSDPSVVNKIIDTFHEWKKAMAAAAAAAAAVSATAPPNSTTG
molecule,measurement,setting,value
"Nc1ncnc2c1ncn2[C@@H]1O[C@H](COS(N)(=O)=O)[C@@H](O)[C@H]1O [AMS, adenosine monosulfonamide]",ΔTm at 1000 µM,CnAcs1 [1],-0.2 °C
same,Ki,CnAcs1 [2],> 50000 nM
"Nc1ncnc2c1ncn2[C@@H]1O[C@H](COP(=O)(O)OP(=O)(O)OP(=O)(O)O)[C@@H](O)[C@H]1O [ATP, adenosine triphosphate, reference compound]",calculated binding energy ΔG,CnAcs1 [2],-6 kcal/mol
"CC(=O)NS(=O)(=O)OC[C@H]1O[C@@H](n2cnc3c(N)ncnc32)[C@H](O)[C@@H]1O [acyl-AMS, acetyl-adenosine monosulfonamide]",Ki,CnAcs1 [2],590 nM
CCCCOP(=O)(O)OC[C@H]1O[C@@H](n2cnc3c(N)ncnc32)[C@H](O)[C@@H]1O [butyl-AMP],ΔTm at 1000 µM,CnAcs1 [1],6.7 °C
same,IC50,CnAcs1 [2],> 50000 nM
same,Ki,CnAcs1 [2],> 50000 nM
same,inhibition of CnAcs1,CnAcs1 [2],no inhibition
same,IC50,A. fumigatus Acs1,> 50000 nM
same,IC50,C. albicans Acs1,> 50000 nM
"CCCC(=O)O [butyrate, reference compound]",utilization as substrate for CnAcs1,CnAcs1 [2],neither valerate nor butyrate were CnAcs1 substrates
same,inhibition of acetate utilization,CnAcs1 [2]; non-preferred acid substrate,does not inhibit
CCOP(=O)(O)OC[C@H]1O[C@@H](n2cnc3c(N)ncnc32)[C@H](O)[C@@H]1O [ethyl-AMP],ΔTm at 1000 µM,CnAcs1 [1],14.2 °C
same,IC50,C. immitis Acs1,60 nM
same,IC50,C. posadasii Acs1,70 nM
same,IC50,CnAcs1 [2],2100 nM
same,Ki,CnAcs1 [2],470 nM
same,IC50,A. fumigatus Acs1,60 nM
same,IC50,C. albicans Acs1,290 nM
NCC(=O)NS(=O)(=O)OCC1OC(n2cnc3c(N)ncnc32)C(O)C1O (centres unmarked) [glycine derivative of AMS],inhibition of CnAcs1,CnAcs1 [2],no inhibition
COP(=O)(O)OC[C@H]1O[C@@H](n2cnc3c(N)ncnc32)[C@H](O)[C@@H]1O [methyl-AMP],ΔTm at 1000 µM,CnAcs1 [1],8.3 °C
same,Ki,CnAcs1 [2],39000 ± 11000 nM
same,fold less active than ethyl AMP ester,CnAcs1 [2],~100 fold
"CCC(=O)O [propionate, reference compound]",Km fold higher than acetate,"CnAcs1 [2]; alternative acid substrate, relative to acetate",> 100 fold
"CCCOP(=O)(O)OC[C@H]1O[C@@H](n2cnc3c(N)ncnc32)[C@H](O)[C@@H]1O [propyl-AMP, propyl-adenosine monophosphate ester]",ΔTm at 1000 µM,CnAcs1 [1],12.2 °C
same,Ki,CnAcs1 [2],1240 ± 200 nM
"CCCCC(=O)O [valerate, reference compound]",utilization as substrate for CnAcs1,CnAcs1 [2],neither valerate nor butyrate were CnAcs1 substrates
C. albicans Acs1 (Candida albicans SC5314),Km,"[3]; other: substrate Km, other substrates in excess, 37 °C, ±S.E.M.",471 ± 45 µM
C. immitis Acs1 (Coccidioides immitis RS),Km,[3]; 37.0 °C,441 ± 45 µM
same,Km,[4],102 ± 8 µM
C. posadasii Acs1 (Coccidioides posadasii C735 delta SOWgp),Km,[3]; 37.0 °C,314 ± 32 µM
same,Km,[4],117 ± 15 µM
CnAcs1 (Cryptococcus neoformans H99) (protein) GKTEVAPGVHHVHPLPDSVPESEDLFAPPPRMQGKEGRPKPHIGPNYESYVKEWAKTVGPNSDEWWAAKARETLDWYDDFKTVRAGGFEHGDVQWFPEGTLNAAYNCLDRHYYKNPKKTAIIYEADEPSESREVSYEELMQETCRVANVLKSYGVKKGDAVSIYLPMTWQAAAAFLACARIGAIHSAVFAGFSAESLRDRVNDCECKVLITTDEGRRGGKTIATKQIVDAALQQCPLVENVLVLRRTGNKVPMTEGRDKWWDEECAKMPAYCPCERMASEDPLFILYTSGSTGKPKGVVHSTAGYLLGTALTLKYVFDAHPDDRFACMADIGWITGHSYIIYGPLANGITTAVFESTPVYPTPSRYWDFVDKWKATQLYTAPTAIRLLRRMGEDHVKNHDLSSLRVLGSVGEPINPEAWHWYNDFAGKNQCAIVDTYWMTETGSISIAPLPGAISTKPGSATFPFFGMDVDIIDPQTGQVLEGNDVEGVLVARRPWPSIARTVYRDHKRYLETYMKPYPGYFFFGDGAARDYDGYMWIKGRVDDVINVSGHRLSTAEVESALILHKGVAETAVVGCADDLTGQAVYAFVTMKPEFDLKATKEADLSKELAIQVRKVIGPFAAPKKIYLVSDLPKTRSGKIMRRVLRKIVAGEGDQLGDLSSIADPQIVEEVKQKVTGSA,Km,[5]; [7],880 ± 170 µM
same,Km,[6]; [7],59 ± 10 µM
A. fumigatus Acs1 (Aspergillus fumigatus Af293) (protein) SDGDVKPAKPAVVLEANDVDTFHVPKAFYEKHPSKTHLKDLDEYKKLYDESIRSPDTFWARMARELLTFDKDFQTTHIGSLENGDNAWFVEGRLNASFNCVDRHAIKNPNKVAIIYEADEPNEGRIITYGELLREVSRVAWVLKQRGVKKGDTVAIYLPMIPEAVVAFLACARIGAIHSVVFAGFSSDSLRDRVLDAGSKVVITTDEGKRGGKVIGTKRIVDEALKQCPDVTSVLVYKRTGAEVPWTNGRDIWWHEEVEKYPCYVAPESMSSEDPLFLLYTSGSTGKPKGVMHTTAGYLLGAAMTGKYVFDIHDDDRFFCGGDVGWITGHTYVVYAPLLLGCSTVVFESTPAYPNFSRYWDVIEKHKVTQFYVAPTALRLLKRAGDEHIHHKMEHLRILGSVGEPIAAEVWKWYFEKVGKEEAHICDTYWQTETGSHVISPLGGITSTKPGSASLPFFGIEPAIIDPVSGEEISGNDVEGVLAFKQPWPSMARTVWGAHKRYMDTYLNVYKGYYFTGDGAGRDHDGYYWIRGRVDDVVNVSGHRLSTAEIEAALIEHHQVAEAAVVGIADELTGQAVNAFVSLKDGNETTEQVRKDLVMQVRKSIGPFAAPKAVFVVEDLPKTRSGKIMRRILRKILSGEEDSLGDTSTLSDPSVVNKIIETVHAARAK,Km,[5]; [8],340 ± 26 µM
same,Km,[6]; [8],42 ± 11 µM
S. cerevisiae Acs1 (Saccharomyces cerevisiae S288C) (protein) MSPSAVQSSKLEEQSSEIDKLKAKMSQSAATAQQKKEHEYEHLTSVKIVPQRPISDRLQPAIATHYSPHLDGLQDYQRLHKESIEDPAKFFGSKATQFLNWSKPFDKVFIPDPKTGRPSFQNNAWFLNGQLNACYNCVDRHALKTPNKKAIIFEGDEPGQGYSITYKELLEEVCQVAQVLTYSMGVRKGDTVAVYMPMVPEAIITLLAISRIGAIHSVVFAGFSSNSLRDRINDGDSKVVITTDESNRGGKVIETKRIVDDALRETPGVRHVLVYRKTNNPSVAFHAPRDLDWATEKKKYKTYYPCTPVDSEDPLFLLYTSGSTGAPKGVQHSTAGYLLGALLTMRYTFDTHQEDVFFTAGDIGWITGHTYVVYGPLLYGCATLVFEGTPAYPNYSRYWDIIDEHKVTQFYVAPTALRLLKRAGDSYIENHSLKSLRCLGSVGEPIAAEVWEWYSEKIGKNEIPIVDTYWQTESGSHLVTPLAGGVTPMKPGSASFPFFGIDAVVLDPNTGEELNTSHAEGVLAVKAAWPSFARTIWKNHDRYLDTYLNPYPGYYFTGDGAAKDKDGYIWILGRVDDVVNVSGHRLSTAEIEAAIIEDPIVAECAVVGFNDDLTGQAVAAFVVLKNKSSWSTATDDELQDIKKHLVFTVRKDIGPFAAPKLIILVDDLPKTRSGKIMRRILRKILAGESDQLGDVSTLSNPGIVRHLIDSVKL,Km,[5]; [9],348 ± 43 µM
same,Km,[6]; [9],161 ± 73 µM
